Measurements from patent US11542274B1, “Therapeutic compounds and methods of use thereof” (AGENCY FOR SCIENCE, TECHNOLOGY AND RESEARCH (A*STAR), priority 2019, dated 2023).

Target: truncated CRBN (319-427) (Homo sapiens (Human), UniProt Q96SW2)
Assay: Fluorescence binding assay (fluorescence quenching), affinity to E3-CEREBLON (CRBN)-ubiquitin ligase
Settings: ubiquitination moiety and linker, pH 6.5
Protocol: Fluorescence quenching end point measurements were performed in black polystyrene 384-plates on Tecan Safire monochromator reader with the following settings: excitation 280 nm; excitation bandwidth 10.0 nm; emission collection 340 nm; emission bandwidth 20.0 nm; high sensitivity flash mode; integration time 40 μS; delay 0 μm. All measurements were done in duplicates; GraphPad Prism 5.03 was used for data evaluation, curve fitting, plotting and determination of IC50 values.
Serial dilutions of each tested ligands were mixed with truncated CRBN (319-427) to a final volume of 25 μL in the assay buffer (20 mM sodium phosphate buffer, pH 6.5, with 150 mM sodium chloride). The final concentration of CRBN in all assay will be 5-10 μM with DMSO level at 4%. A control lanes were prepared with only tested ligands without the addition of CRBN, top up with assay buffer to 25 μL. Plates were incubated for 5 minutes and analyzed using the monochromator plate reader.
IC50 is the compound concentration that causes 50% quenching of the desired activity.

Sequence of truncated CRBN (319-427) (Q96SW2 319-427): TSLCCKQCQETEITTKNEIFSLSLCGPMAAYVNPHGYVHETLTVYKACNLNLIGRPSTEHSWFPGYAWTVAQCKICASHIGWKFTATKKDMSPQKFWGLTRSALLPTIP

| SMILES | IC50 [µM] |
| --- | --- |
| [N-]=[N+]=NCCOCCOCCOCCNC(=O)c1cc(-c2ccc3c(c2)NC(=O)C3)ccn1 [Compound 084, N-(2-(2-(2-(2-azidoethoxy)ethoxy)ethoxy)ethyl)-4-(2-oxoindolin-6-yl)picolinamide] | 1 to 100 |
| [N-]=[N+]=NCCOCCOCCOCCNc1cc(-c2ccc3c(c2)NC(=O)C3)ccn1 [Compound 085, 6-(2-((2-(2-(2-(2-azidoethoxy)ethoxy)ethoxy)ethyl)amino)pyridin-4-yl)indolin-2-one] | 100 to 300 |
| [N-]=[N+]=NCCOCCOCCOCCNc1ccc(C(=O)Nc2ccc3c(c2)CC(=O)N3)cn1 [Compound 086, 6-((2-(2-(2-(2-azidoethoxy)ethoxy)ethoxy)ethyl)amino)-N-(2-oxoindolin-5-yl)nicotinamide] | 1 to 100 |
| NCCCCCNc1cc(-c2ccc3c(c2)NC(=O)C3)ccn1 [Compound 087, 6-(2-((5-aminopentyl)amino)pyridin-4-yl)indolin-2-one] | > 300 |
| [N-]=[N+]=NCCOCCOCCOCCNc1cc(-c2ccc3c(c2)CC(=O)N3)ccn1 [Compound 088, 5-(2-((2-(2-(2-(2-azidoethoxy)ethoxy)ethoxy)ethyl)amino)pyridin-4-yl)indolin-2-one] | 100 to 300 |

Same assay, conditions: ubiquitination moiety, pH 6.5

| SMILES | IC50 [µM] |
| --- | --- |
| O=C1Cc2ccc(NC(=O)c3ccncc3)cc2N1 [Compound 032, N-(2-oxoindolin-6-yl)isonicotinamide] | 100 to 300 |
| O=C1Cc2ccc(C(=O)NCc3cccnc3)cc2N1 [Compound 033, 2-oxo-N-(pyridin-3-ylmethyl)indoline-6-carboxamide] | > 300 |
| O=C1Cc2ccc(OC3CCNCC3)cc2N1 [Compound 034, 6-(piperidin-4-yloxy)indolin-2-one] | > 300 |
| O=C1Cc2ccc(Oc3ccnc(Cl)n3)cc2N1 [Compound 035, 6-((2-chloropyrimidin-4-yl)oxy)indolin-2-one] | > 300 |
| COC(=O)COc1ccc2c(c1)NC(=O)C2 [Compound 036, methyl 2-((2-oxoindolin-6-yl)oxy)acetate] | > 300 |
| O=C1Cc2cccc(-c3ccncc3)c2N1 [Compound 037, 7-(pyridin-4-yl)indolin-2-one] | > 300 |
| O=C1Cc2c(cccc2-c2ccncc2)N1 [Compound 038, 4-(pyridin-4-yl)indolin-2-one] | > 300 |
| O=C1Cc2cc(-c3ccncc3)ccc2N1 [Compound 039, 5-(pyridin-4-yl)indolin-2-one] | 100 to 300 |
| COc1cc(-c2ccc3c(c2)CC(=O)N3)ccn1 [Compound 041, 5-(2-methoxypyridin-4-yl)indolin-2-one] | > 300 |
| Cc1cc(N)ncc1-c1ccc2c(c1)CC(=O)N2 [Compound 043, 5-(6-amino-4-methylpyridin-3-yl)indolin-2-one] | 100 to 300 |
| Cc1nc(N)ccc1-c1ccc2c(c1)CC(=O)N2 [Compound 044, 5-(6-amino-2-methylpyridin-3-yl)indolin-2-one] | 100 to 300 |
| CNc1ccc(-c2ccc3c(c2)CC(=O)N3)cn1 [Compound 046, 5-(6-(methylamino)pyridin-3-yl)indolin-2-one] | 100 to 300 |
| CNc1cc(-c2ccc3c(c2)CC(=O)N3)ccn1 [Compound 047, 5-(2-(methylamino)pyridin-4-yl)indolin-2-one] | 100 to 300 |
| CC(=O)Nc1ncc(-c2ccc3c(c2)CC(=O)N3)cc1C [Compound 048, N-(3-methyl-5-(2-oxoindolin-5-yl)pyridin-2-yl)acetamide] | 100 to 300 |
| CC(=O)Nc1ccc(-c2ccc3c(c2)CC(=O)N3)c(C)n1 [Compound 049, N-(6-methyl-5-(2-oxoindolin-5-yl)pyridin-2-yl)acetamide] | > 300 |
| CC(=O)Nc1cc(C)c(-c2ccc3c(c2)CC(=O)N3)cn1 [Compound 050, N-(4-methyl-5-(2-oxoindolin-5-yl)pyridin-2-yl)acetamide] | 1 to 100 |
| O=C1Cc2cc(-c3ccccc3)ccc2N1 [Compound 051, 5-phenylindolin-2-one] | > 300 |
| CC(C)(C)OC(=O)N1CCN(C(=O)c2ccc(-c3ccc4c(c3)CC(=O)N4)cc2)CC1 [Compound 052, tert-butyl 4-(4-(2-oxoindolin-5-yl)benzoyl)piperazine-1-carboxylate] | > 300 |
| CC(C)(C)OC(=O)N1CCN(C(=O)c2cccc(-c3ccc4c(c3)CC(=O)N4)c2)CC1 [Compound 053, tert-butyl 4-(3-(2-oxoindolin-5-yl)benzoyl)piperazine-1-carboxylate] | 1 to 100 |
| O=C1Cc2cc(-c3ccc(C(=O)N4CCNCC4)cc3)ccc2N1 [Compound 054, 5-(4-(piperazine-1-carbonyl)phenyl)indolin-2-one] | 100 to 300 |
| O=C1Cc2cc(-c3cccc(C(=O)N4CCNCC4)c3)ccc2N1 [Compound 055, 5-(3-(piperazine-1-carbonyl)phenyl)indolin-2-one] | 100 to 300 |
| O=C1Cc2cc(-c3cccnc3)ccc2N1 [Compound 056, 5-(pyridin-3-yl)indolin-2-one] | 100 to 300 |
| O=C1Cc2cc(-c3ccc(N4CCCCC4)nc3)ccc2N1 [Compound 057, 5-(6-(piperidin-1-yl)pyridin-3-yl)indolin-2-one] | > 300 |
| O=C1Cc2cc(C(=O)N3CCCCC3)ccc2N1 [Compound 058, 5-(piperidine-1-carbonyl)indolin-2-one] | 100 to 300 |
| O=C1Cc2cc(NC(=O)c3ccncc3)ccc2N1 [Compound 059, N-(2-oxoindolin-5-yl)isonicotinamide] | 100 to 300 |

| SMILES | IC50 [µM] |
| --- | --- |
| CC(=O)N1CCC(C(=O)Nc2ccc3c(c2)CC(=O)N3)CC1 [Compound 060, 1-acetyl-N-(2-oxoindolin-5-yl)piperidine-4-carboxamide] | 100 to 300 |
| O=C1Nc2cc(-c3ccncc3)ccc2C1(F)F [Compound 061, 3,3-difluoro-6-(pyridin-4-yl)indolin-2-one] | > 300 |
| CC1(C)C(=O)Nc2cc(-c3ccncc3)ccc21 [Compound 062, 3,3-dimethyl-6-(pyridin-4-yl)indolin-2-one] | > 300 |
| O=C1Cc2ccc(C3=CCN(C(=O)OCc4ccccc4)CC3)cc2N1 [Compound 063, benzyl 4-(2-oxoindolin-6-yl)-3,6-dihydropyridine-1(2H)-carboxylate] | > 300 |
| O=C1Cc2ccc(-c3ccc(N4CCCCC4)nc3)cc2N1 [Compound 064, 6-(6-(piperidin-1-yl)pyridin-3-yl)indolin-2-one] | > 300 |
| O=C1Cc2ccc(-c3ccc(N4CCNCC4)nc3)cc2N1 [Compound 065, 6-(6-(piperazin-1-yl)pyridin-3-yl)indolin-2-one] | > 300 |
| CCOC(=O)c1cc(-c2ccc3c(c2)NC(=O)C3)ccn1 [Compound 066, ethyl 4-(2-oxoindolin-6-yl)picolinate] | > 300 |
| CN1CCN(C(=O)c2ccc3c(c2)CC(=O)N3)CC1 [Compound 067, 5-(4-methylpiperazine-1-carbonyl)indolin-2-one] | > 300 |
| O=C1Cc2cc(C(=O)N3CCC(c4ccccc4)CC3)ccc2N1 [Compound 068, 5-(4-phenylpiperidine-1-carbonyl)indolin-2-one] | 100 to 300 |
| O=C1Cc2cc(C(=O)N3CCC(Cc4ccccc4)CC3)ccc2N1 [Compound 069, 5-(4-benzylpiperidine-1-carbonyl)indolin-2-one] | > 300 |
| O=C1Cc2ccc(-c3ccc(F)nc3)cc2N1 [Compound 070, 6-(6-fluoropyridin-3-yl)indolin-2-one] | > 300 |
| O=C1Cc2ccc(NC(=O)c3cccnc3)cc2N1 [Compound 071, N-(2-oxoindolin-6-yl)nicotinamide] | 100 to 300 |
| O=C1Cc2cc(NC(=O)c3cccnc3)ccc2N1 [Compound 072, N-(2-oxoindolin-5-yl)nicotinamide] | 100 to 300 |
| O=C1Cc2cc(-c3ccncc3)ncc2N1 [Compound 073, 5-(pyridin-4-yl)-1,3-dihydro-2H-pyrrolo[2,3-c]pyridin-2-one] | > 300 |
| O=C1Cc2cnc(-c3ccncc3)cc2N1 [Compound 074, 6-(pyridin-4-yl)-1,3-dihydro-2H-pyrrolo[3,2-c]pyridin-2-one] | 100 to 300 |
| O=C1Cc2ncc(-c3ccncc3)cc2N1 [Compound 075, 6-(pyridin-4-yl)-1,3-dihydro-2H-pyrrolo[3,2-b]pyridin-2-one] | > 300 |
| O=C1Cc2cc(NC(=O)c3ccnc(F)c3)ccc2N1 [Compound 076, 2-fluoro-N-(2-oxoindolin-5-yl)isonicotinamide] | 100 to 300 |
| NC1CCN(C(=O)c2ccc3c(c2)NC(=O)C3)CC1 [Compound 077, 6-(4-aminopiperidine-1-carbonyl)indolin-2-one] | > 300 |
| NC1CCN(C(=O)c2ccc3c(c2)CC(=O)N3)CC1 [Compound 078, 5-(4-aminopiperidine-1-carbonyl)indolin-2-one] | > 300 |
| COC(=O)c1ccccc1-c1ccc2c(c1)NC(=O)C2 [Compound 079, methyl 2-(2-oxoindolin-6-yl)benzoate] | > 300 |
| NC1CCCN(C(=O)c2ccc3c(c2)NC(=O)C3)C1 (stereo not drawn) [Compound 080, 6-(3-aminopiperidine-1-carbonyl)indolin-2-one] | > 300 |
| NC1CCCN(C(=O)c2ccc3c(c2)CC(=O)N3)C1 (stereo not drawn) [Compound 081, 5-(3-aminopiperidine-1-carbonyl)indolin-2-one] | > 300 |
| CC(C)C1C(=O)Nc2ccc(-c3ccncc3)cc21 (stereo not drawn) [Compound 082, 3-isopropyl-5-(pyridin-4-yl)indolin-2-one] | > 300 |
| CN1C(=O)Cc2cc(C(=O)N3CCCCC3)ccc21 [Compound 083, 1-methyl-5-(piperidine-1-carbonyl)indolin-2-one] | > 300 |
